{"source": "patent US11332485B2", "about": "“Penicillin-binding protein inhibitors” (priority 2017, dated 2022)", "key": {"[1]": {"molecular_target": "T1, PBP3 from Escherichia coli (Escherichia coli, UniProt P0AD68)", "T1 construct": "made in house", "T1 sequence (P0AD68 1-577)": "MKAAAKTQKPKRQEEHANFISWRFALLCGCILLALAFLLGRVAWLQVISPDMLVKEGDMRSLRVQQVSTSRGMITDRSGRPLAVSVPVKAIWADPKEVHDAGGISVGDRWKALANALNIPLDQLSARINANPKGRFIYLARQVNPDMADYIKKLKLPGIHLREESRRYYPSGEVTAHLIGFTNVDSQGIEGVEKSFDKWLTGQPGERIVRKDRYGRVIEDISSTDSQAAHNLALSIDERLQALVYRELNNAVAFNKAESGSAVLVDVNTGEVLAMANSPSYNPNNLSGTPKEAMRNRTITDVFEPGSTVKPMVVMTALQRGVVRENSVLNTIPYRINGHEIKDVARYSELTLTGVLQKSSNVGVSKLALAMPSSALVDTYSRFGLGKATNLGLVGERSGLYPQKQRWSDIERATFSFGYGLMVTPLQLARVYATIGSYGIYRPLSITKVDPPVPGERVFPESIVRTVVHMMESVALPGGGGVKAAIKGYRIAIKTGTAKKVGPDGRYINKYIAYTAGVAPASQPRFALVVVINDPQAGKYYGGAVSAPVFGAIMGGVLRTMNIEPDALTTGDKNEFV", "test": "Competition binding assay using Bodipy-FL boronic acid probe (Example 95)", "conditions": "PBP3 3 μM, read-out: E. coli K12 PBP3 Potency", "protocol": "PBP3 from Escherichia coli was cloned and purified as described previously (King, D. T, et al., ACS Infectious Diseases 2015, 1, 175-184). To establish assay conditions for competition binding, an enzyme titration/saturation binding experiment was performed. […] FP was measured immediately upon addition of PBP3 (Ex, Em), using a Cytation3 (BioTek) microplate reader and measured continuously for 60 minutes. […] The competition binding assay was validated using the beta-lactam ampicillin, with Bocillin-FL at a final concentration of 0.1 μM, PBP3 at a final concentration of 1.5 μM and concentrations of ampicillin from 0-1000 μM. […] Binding assays for boronic acid PBP inhibitors were performed in an identical fashion. Representative results are shown in Table 3, where A represents a potency of >500 μM, B represents a potency between 30 μM and 500 μM inclusive, and C represents a potency of <30 μM. NT=Not Tested.\nThe method described in Example II was adapted to use a Bodipy-labeled boronic acid PBP inhibitor (Example 13 or Example 95) to assess PBP3 potency of boronic acid PBP inhibitors. The method is identical to that described in Example II for the Bocillin-FL competition binding assay, with the following exceptions: PBP3 from Escherichia coli is used at a final concentration of 3 μM. […]"}, "[2]": {"molecular_target": "T2, PBP1a from Escherichia coli (Escherichia coli, UniProt P02918)", "T2 construct": "made in house", "T2 sequence (P02918 whole entry)": "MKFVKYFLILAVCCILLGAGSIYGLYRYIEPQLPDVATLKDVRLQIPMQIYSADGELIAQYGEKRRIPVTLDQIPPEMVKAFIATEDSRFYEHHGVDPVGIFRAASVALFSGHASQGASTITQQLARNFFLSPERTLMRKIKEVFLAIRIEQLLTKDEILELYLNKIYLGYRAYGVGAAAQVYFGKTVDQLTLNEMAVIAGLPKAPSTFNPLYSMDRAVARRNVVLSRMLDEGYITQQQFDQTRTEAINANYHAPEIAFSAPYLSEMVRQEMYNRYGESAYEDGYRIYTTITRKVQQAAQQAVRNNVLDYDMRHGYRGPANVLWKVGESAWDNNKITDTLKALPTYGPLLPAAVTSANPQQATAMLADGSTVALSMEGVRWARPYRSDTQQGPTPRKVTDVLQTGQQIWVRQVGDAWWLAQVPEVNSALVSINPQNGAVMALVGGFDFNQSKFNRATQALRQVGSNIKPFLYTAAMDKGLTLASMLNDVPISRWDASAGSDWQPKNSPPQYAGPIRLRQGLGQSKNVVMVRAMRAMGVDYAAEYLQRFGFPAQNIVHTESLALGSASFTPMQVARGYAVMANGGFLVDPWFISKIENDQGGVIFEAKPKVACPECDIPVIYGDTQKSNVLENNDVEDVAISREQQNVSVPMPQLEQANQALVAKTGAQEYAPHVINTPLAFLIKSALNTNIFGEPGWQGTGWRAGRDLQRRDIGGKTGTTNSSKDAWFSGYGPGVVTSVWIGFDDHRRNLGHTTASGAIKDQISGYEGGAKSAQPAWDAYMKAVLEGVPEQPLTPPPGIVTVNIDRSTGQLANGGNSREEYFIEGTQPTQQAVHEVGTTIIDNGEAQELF", "test": "Radioligand competition binding assay with 14C-labeled boronic acid probe (Example 96)", "conditions": "14C-labeled probe 96 at 20 μM, PBP 0.1 μM; read-out: E. coli K12 PBP1a EC50", "summary_of_the_method": "(§1)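 Purified PBP (0.1 μM) in 20 mM Tris pH 7.5, 500 mM NaCl, 0.1% Triton X-100 preincubated 60 min with inhibitor, then 60 min with 20 μM 14C-boronic acid probe. Bound probe recovered by spin desalting and counted by scintillation; EC50 is the concentration halving probe binding.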"}, "[3]": {"molecular_target": "T3, PBP1b from Escherichia coli (Escherichia coli, UniProt P02919)", "T3 construct": "made in house", "T3 sequence (P02919 whole entry)": "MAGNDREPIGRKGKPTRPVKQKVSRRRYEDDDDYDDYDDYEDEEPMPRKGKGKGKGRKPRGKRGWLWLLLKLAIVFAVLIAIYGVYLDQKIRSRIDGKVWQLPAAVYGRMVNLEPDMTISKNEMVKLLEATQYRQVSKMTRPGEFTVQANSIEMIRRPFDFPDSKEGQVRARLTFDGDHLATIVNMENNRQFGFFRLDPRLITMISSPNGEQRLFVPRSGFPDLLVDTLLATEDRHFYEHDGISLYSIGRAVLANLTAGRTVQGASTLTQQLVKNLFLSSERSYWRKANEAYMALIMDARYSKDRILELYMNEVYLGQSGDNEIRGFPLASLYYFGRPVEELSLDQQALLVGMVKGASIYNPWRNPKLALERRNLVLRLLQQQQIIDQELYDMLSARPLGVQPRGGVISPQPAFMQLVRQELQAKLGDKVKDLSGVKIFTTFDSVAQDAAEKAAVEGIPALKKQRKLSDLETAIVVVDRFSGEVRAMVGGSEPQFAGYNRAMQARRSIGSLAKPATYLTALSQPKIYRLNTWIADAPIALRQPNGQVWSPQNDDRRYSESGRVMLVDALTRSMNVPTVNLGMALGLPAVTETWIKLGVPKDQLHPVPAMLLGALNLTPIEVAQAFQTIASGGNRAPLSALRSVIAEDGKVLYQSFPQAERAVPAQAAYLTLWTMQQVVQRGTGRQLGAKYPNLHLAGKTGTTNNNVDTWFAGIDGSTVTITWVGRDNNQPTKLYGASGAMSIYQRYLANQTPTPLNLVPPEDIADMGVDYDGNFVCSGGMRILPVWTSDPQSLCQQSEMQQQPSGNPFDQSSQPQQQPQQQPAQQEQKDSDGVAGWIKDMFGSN", "test": "Radioligand competition binding assay with 14C-labeled boronic acid probe (Example 96)", "conditions": "14C-labeled probe 96 at 20 μM, PBP 0.1 μM; read-out: E. coli K12 PBP1b EC50", "summary_of_the_method": "as §1"}, "[4]": {"system": "E. coli DH5α/pLBII-CTX-M15", "test": "Broth microdilution MIC assay, engineered strain producing CTX-M15", "format": "cell-based, Escherichia coli", "conditions": "Escherichia coli, read-out: E. coli DH5α/pLBII-CTX-M15 Microbiological Activity (MIC)", "summary_of_the_method": "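CLSI broth microdilution in cation-supplemented Mueller-Hinton broth, 2-fold compound dilutions, 5×10^5 CFU/mL inoculum, 16-20 h at 37° C, MIC read visually as lowest concentration without growth. E. coli DH5α carries CTX-M15 on pLBII under Lac promoter, or empty pLBII as control.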"}}}
{"smiles": "CCN1CCN(C(=O)NC(C(=O)N[C@H]2Cc3cccc(C(=O)O)c3OB2O)c2csc(N)n2)C(=O)C1=O", "note": "(stereo partly drawn) [Example 12, (3R)-3-(2-(2-aminothiazol-4-yl)-2-(4-ethyl-2,3-dioxopiperazine-1-carboxamido)acetamido)-2-hydroxy-3,4-dihydro-2H-benzo[e][1,2]oxaborinine-8-carboxylic acid]", "values": [{"measurement": "EC50", "setting": "[1]", "value": "< 10", "unit": "µM"}, {"measurement": "EC50", "setting": "[2]", "value": "< 10", "unit": "µM"}, {"measurement": "EC50", "setting": "[3]", "value": "< 10", "unit": "µM"}, {"measurement": "MIC", "setting": "[4]", "value": "8 to 16", "unit": "µg/mL"}]}
